In US20090306050A1, “TREATMENT AND PREVENTION OF DEPRESSION WITH PAIN, DEPRESSION SECONDARY TO PAIN, AND OF NEUROPATHIC PAIN” (priority 2006, published 2009):

Legend:
ECG interval = settings: rats infused with the antidepressant; cited from earlier work
neuropathic pain = settings: in vivo; cited from earlier work
[1] = fatal poisoning/overdose, Scotland, England and Wales; cited from earlier work
severe neuropathic pain = assay: Example 2: diabetic clinic patients with severe neuropathic pain; type: in vivo
Text: Four patients at a diabetic clinic present with severe neuropathic pain. Conventional analgesics are of no benefit.

NA and 5HT reuptake = assay: NA versus 5HT reuptake selectivity from comparative Ki's (Bolden-Watson and Richelson); type: biochemical
Text: There are a number of ways in which the ratio of NA to 5HT reuptake in antidepressant molecules may be measured. The selectivity a drug for various receptors may be compared by use of comparative Ki's and not comparative IC 50 values. (Bolden-Watson, C and Richelson, E., Life Sci, (52), 1993, 1023-1029), which is hereby incorporated by reference.

D2 receptor = D2 receptor (Homo sapiens, UniProt P14416); assay: activity at the dopamine D2 receptor
[2] = system: major depression with aches and pains; assay: Example 1: patients with major depression and multiple aches and pains; type: in vivo; settings: three patients, commenced 70 mg twice daily, final 140mg to 280mg daily
Description: Three patients who fulfilled criteria for major depression present with multiple aches and pains for which there is no obvious physical cause. […] The final dose of medication ranges from 140mg daily to 280mg daily.

serotonin synthesis = serotonin synthesis in the brain; settings: in vivo
sedation = settings: in vivo

Sequence of D2 receptor (P14416 whole entry): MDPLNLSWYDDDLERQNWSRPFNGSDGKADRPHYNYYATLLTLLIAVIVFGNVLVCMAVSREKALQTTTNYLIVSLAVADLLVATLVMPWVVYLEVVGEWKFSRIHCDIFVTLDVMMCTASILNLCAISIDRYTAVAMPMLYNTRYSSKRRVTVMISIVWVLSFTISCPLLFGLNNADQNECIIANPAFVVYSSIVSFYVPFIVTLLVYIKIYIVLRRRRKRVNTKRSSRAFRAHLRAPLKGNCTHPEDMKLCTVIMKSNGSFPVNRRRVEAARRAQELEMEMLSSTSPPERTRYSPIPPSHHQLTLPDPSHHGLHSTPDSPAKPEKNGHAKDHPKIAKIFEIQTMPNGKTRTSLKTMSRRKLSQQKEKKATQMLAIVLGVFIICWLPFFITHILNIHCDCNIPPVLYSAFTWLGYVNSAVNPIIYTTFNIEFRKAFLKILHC

CN(C)CCC=C1c2ccccc2CCc2ccccc21 [amitriptyline]
prolongation of the ECG interval (ECG interval): prolong the ECG interval

CC(NC(C)(C)C)C(=O)c1cccc(Cl)c1 (centres unmarked) [buproprion]
effectiveness in neuropathic pain (neuropathic pain): has not been found to be effective

CNCCCN1c2ccccc2CCc2ccccc21 [desipramine]
fatalities per million prescriptions [1]: 200.9 per million prescriptions | prolongation of the ECG interval (ECG interval): prolong the ECG interval

CNCC[C@H](Oc1cccc2ccccc12)c1cccs1 [duloxetine]
response of neuropathic pain to prior treatment (severe neuropathic pain; four diabetic patients, prescribed before lofepramine): failed to respond

CN(C)CCCN1c2ccccc2CCc2ccccc21 [imipramine]
prolongation of the ECG interval (ECG interval): prolong the ECG interval

CN(CCCN1c2ccccc2CCc2ccccc21)CC(=O)c1ccc(Cl)cc1 [lofepramine]
NA:5HT ratio relative to desipramine (NA and 5HT reuptake): about four times that of desipramine | NE: 5-HT ratio relative to milnacipran (NA and 5HT reuptake): higher than that of milnacipran | activity at the D2 receptor (D2 receptor): potent activity | improvement in symptoms including pain [2]: All three show improvement in all symptoms including pain within four weeks | relief of neuropathic pain (severe neuropathic pain; four diabetic patients, 70 mg tds, after failure of analgesics and duloxetine): dramatic relief of pain in 3 of the 4 cases | response after escalation of the dose (severe neuropathic pain; patient 4, escalated dose): results in improvement | effect on serotonin synthesis in the brain (serotonin synthesis): up-regulate serotonin synthesis in the brain | induction of sedation (sedation): does not induce sedation | fatalities per million prescriptions [1]: 1.3 per million prescriptions | prolongation of the ECG interval (ECG interval): does not

COc1ccc(C(CN(C)C)C2(O)CCCCC2)cc1 (centres unmarked) [venlafaxine]
fatalities per million prescriptions [1]: 13.2 per million prescriptions
